Measured values taken from PMC5218480 (PLoS ONE, 2017).

Test system: MV-4-11 cells
Experiment: Gene expression microarray analysis (Affymetrix PrimeView) and GSEA
Assay type: cell-based, human
Design: RFU PODN (11730768_x_at) / Fold change /veh PODN (11730768_x_at) / RFU LINC00158 (11744669_a_at) / Fold change /veh LINC00158 (11744669_a_at) / RFU DUSP10 (11751237_a_at) / Fold change /veh DUSP10 (11751237_a_at) / RFU ID3 (11757404_x_at) / Fold change /veh ID3 (11757404_x_at) / RFU PLEKHG5 (11737974_s_at) / Fold change /veh PLEKHG5 (11737974_s_at) / RFU LRRC4B (11730491_at) / Fold change /veh LRRC4B (11730491_at) / RFU GIMAP4 (11747438_a_at) / Fold change /veh GIMAP4 (11747438_a_at) / RFU KRT8 (11758183_x_at) / Fold change /veh KRT8 (11758183_x_at) / RFU CNN1 (11734310_a_at) / Fold change /veh CNN1 (11734310_a_at) / RFU VPS37D (11726825_at) / Fold change /veh VPS37D (11726825_at) / RFU C10orf10 (11716522_x_at) / Fold change /veh C10orf10 (11716522_x_at) / RFU KIR2DL2 /// KIR2DL4 /// KIR2DL5A /// KIR2DL5B /// KIR2DS1 /// KIR2DS2 /// KIR2DS3 /// KIR2DS4 /// KIR3DL3 /// KIR3DL3 /// KIR3DS1 (11738374_at) / Fold change /veh KIR2DL2 /// KIR2DL4 /// KIR2DL5A /// KIR2DL5B /// KIR2DS1 /// KIR2DS2 /// KIR2DS3 /// KIR2DS4 /// KIR3DL3 /// KIR3DL3 /// KIR3DS1 (11738374_at) / RFU C1QL1 (11718748_at) / Fold change /veh C1QL1 (11718748_at) / RFU TMPRSS4 (11747572_a_at) / Fold change /veh TMPRSS4 (11747572_a_at) / RFU HAMP (11756126_x_at) / Fold change /veh HAMP (11756126_x_at) / RFU RNFT2 (11725882_a_at) / Fold change /veh RNFT2 (11725882_a_at) / RFU NR4A2 (11747474_a_at) / Fold change /veh NR4A2 (11747474_a_at) / RFU ABCC12 (11746883_a_at) / Fold change /veh ABCC12 (11746883_a_at) / RFU TMEM136 (11760407_x_at) / Fold change /veh TMEM136 (11760407_x_at) / RFU CLDN22 /// WWC2 (11732394_at) / Fold change /veh CLDN22 /// WWC2 (11732394_at) / RFU HLA-DPB1 (11760878_x_at) / Fold change /veh HLA-DPB1 (11760878_x_at) / RFU SPINT1 (11716480_a_at) / Fold change /veh SPINT1 (11716480_a_at) / RFU GAP43 (11754022_s_at) / Fold change /veh GAP43 (11754022_s_at) / RFU A4GNT (11735810_at) / Fold change /veh A4GNT (11735810_at) / RFU PRB3 (11715151_x_at) / Fold change /veh PRB3 (11715151_x_at) / RFU TUBB4B (11761932_at) / Fold change /veh TUBB4B (11761932_at) / RFU CAPN14 (11732068_a_at) / Fold change /veh CAPN14 (11732068_a_at) / RFU TMCC2 (11721928_a_at) / Fold change /veh TMCC2 (11721928_a_at) / RFU IRGQ (11745062_a_at) / Fold change /veh IRGQ (11745062_a_at) / RFU FAM174B (11720279_a_at) / Fold change /veh FAM174B (11720279_a_at) / RFU TMPRSS4 (11748680_a_at) / Fold change /veh TMPRSS4 (11748680_a_at) / RFU FAM212B (11763350_a_at) / Fold change /veh FAM212B (11763350_a_at) / RFU PLEKHG5 (11743358_a_at) / Fold change /veh PLEKHG5 (11743358_a_at) / RFU ZSCAN30 (11745921_a_at) / Fold change /veh ZSCAN30 (11745921_a_at) / RFU CMKLR1 (11741424_a_at) / Fold change /veh CMKLR1 (11741424_a_at) / RFU LOC101060620 /// MAPK8IP1 (11723275_at) / Fold change /veh LOC101060620 /// MAPK8IP1 (11723275_at) / RFU SPTSSB (11747773_x_at) / Fold change /veh SPTSSB (11747773_x_at) / RFU PRSS12 (11739890_at) / Fold change /veh PRSS12 (11739890_at) / RFU BIN1 (11741810_x_at) / Fold change /veh BIN1 (11741810_x_at) / RFU WNT11 (11732464_a_at) / Fold change /veh WNT11 (11732464_a_at) / RFU C10orf10 (11716521_a_at) / Fold change /veh C10orf10 (11716521_a_at) / RFU C5orf56 (11738089_at) / Fold change /veh C5orf56 (11738089_at) / RFU CYB561 (11721691_x_at) / Fold change /veh CYB561 (11721691_x_at) / RFU ANKRD19P (11752326_a_at) / Fold change /veh ANKRD19P (11752326_a_at) / RFU OR2T12 /// OR2T33 /// OR2T8 (11738714_s_at) / Fold change /veh OR2T12 /// OR2T33 /// OR2T8 (11738714_s_at) / RFU VCAN (11748164_a_at) / Fold change /veh VCAN (11748164_a_at) / RFU JSRP1 (11732532_at) / Fold change /veh JSRP1 (11732532_at) / RFU KRTAP10-11 (11738290_x_at) / Fold change /veh KRTAP10-11 (11738290_x_at) / RFU MYO3A (11730013_a_at) / Fold change /veh MYO3A (11730013_a_at) / RFU EBF3 (11725865_a_at) / Fold change /veh EBF3 (11725865_a_at) / RFU CAMK2N1 (11719241_x_at) / Fold change /veh CAMK2N1 (11719241_x_at) / RFU C5orf56 (11738088_a_at) / Fold change /veh C5orf56 (11738088_a_at) / RFU OLFML3 (11715873_a_at) / Fold change /veh OLFML3 (11715873_a_at) / RFU LOC100653217 /// NTM (11731650_a_at) / Fold change /veh LOC100653217 /// NTM (11731650_a_at) / RFU MAPK11 (11762145_a_at) / Fold change /veh MAPK11 (11762145_a_at) / RFU FIZ1 (11724087_x_at) / Fold change /veh FIZ1 (11724087_x_at) / RFU OASL (11726364_x_at) / Fold change /veh OASL (11726364_x_at) / RFU SOX15 (11748057_x_at) / Fold change /veh SOX15 (11748057_x_at) / RFU CD79A (11719716_a_at) / Fold change /veh CD79A (11719716_a_at) / RFU HIST1H1D (11736915_at) / Fold change /veh HIST1H1D (11736915_at) / RFU CASKIN2 (11723855_a_at) / Fold change /veh CASKIN2 (11723855_a_at) / RFU LOC730098 (11760151_x_at) / Fold change /veh LOC730098 (11760151_x_at) / RFU OR4N2 (11742367_at) / Fold change /veh OR4N2 (11742367_at) / RFU PRRT2 (11749266_a_at) / Fold change /veh PRRT2 (11749266_a_at) / RFU SNX32 (11753110_a_at) / Fold change /veh SNX32 (11753110_a_at) / RFU CDHR5 (11726645_a_at) / Fold change /veh CDHR5 (11726645_a_at) / RFU RCAN1 (11760418_a_at) / Fold change /veh RCAN1 (11760418_a_at) / RFU FAM167A (11723789_a_at) / Fold change /veh FAM167A (11723789_a_at) / RFU FAM26E (11764081_at) / Fold change /veh FAM26E (11764081_at) / RFU ISYNA1 (11749810_s_at) / Fold change /veh ISYNA1 (11749810_s_at) / RFU ACY1 (11761880_at) / Fold change /veh ACY1 (11761880_at) / RFU 11764098_at / Fold change /veh 11764098_at / RFU SAMD14 (11745864_x_at) / Fold change /veh SAMD14 (11745864_x_at) / RFU NPB (11741838_a_at) / Fold change /veh NPB (11741838_a_at) / RFU TMPRSS6 (11731388_a_at) / Fold change /veh TMPRSS6 (11731388_a_at) / RFU KRTAP10-2 (11738614_at) / Fold change /veh KRTAP10-2 (11738614_at) / RFU ARHGAP8 /// PRR5-ARHGAP8 (11727945_x_at) / Fold change /veh ARHGAP8 /// PRR5-ARHGAP8 (11727945_x_at) / RFU KRTAP5-7 /// NADSYN1 (11734609_at) / Fold change /veh KRTAP5-7 /// NADSYN1 (11734609_at) / RFU RASL12 (11751679_a_at) / Fold change /veh RASL12 (11751679_a_at) / RFU CDKN2B (11736163_a_at) / Fold change /veh CDKN2B (11736163_a_at) / RFU PRF1 (11729649_at) / Fold change /veh PRF1 (11729649_at) / RFU, ZNF638 /// ZNF638-IT1 / Fold change vs veh, ZNF638 /// ZNF638-IT1 / RFU, PANK3 / Fold change vs veh, PANK3 / RFU, SH3YL1 / Fold change vs veh, SH3YL1 / RFU, ZEB2 / Fold change vs veh, ZEB2 / RFU, NRIP1 / Fold change vs veh, NRIP1 / RFU, PTTG1IP / Fold change vs veh, PTTG1IP / RFU, CAPN2 / Fold change vs veh, CAPN2 / RFU, MED14 / Fold change vs veh, MED14 / RFU, SNORA58 / Fold change vs veh, SNORA58 / RFU, C1orf63 / Fold change vs veh, C1orf63 / RFU, LRRFIP1 / Fold change vs veh, LRRFIP1 / RFU, NDUFAF7 / Fold change vs veh, NDUFAF7 / RFU, SLC12A2 / Fold change vs veh, SLC12A2 / RFU, IBTK / Fold change vs veh, IBTK / RFU, ESF1 / Fold change vs veh, ESF1 / Fold change vs veh, TMEM50B / RFU, TAOK1 / Fold change vs veh, TAOK1 / RFU, ACBD3 / Fold change vs veh, ACBD3 / RFU, TMA16 / Fold change vs veh, TMA16 / RFU, RWDD3 / Fold change vs veh, RWDD3 / RFU, BCAT1 / Fold change vs veh, BCAT1 / RFU, EDEM3 / Fold change vs veh, EDEM3 / RFU, TMEM33 / Fold change vs veh, TMEM33 / RFU, WDR75 / Fold change vs veh, WDR75 / RFU, AHCTF1 / Fold change vs veh, AHCTF1 / RFU, TFRC / Fold change vs veh, TFRC / RFU, ZDHHC17 / Fold change vs veh, ZDHHC17 / RFU, NOM1 / Fold change vs veh, NOM1 / RFU, ARL8B / Fold change vs veh, ARL8B / RFU, ZBTB11 / Fold change vs veh, ZBTB11 / RFU, TAMM41 / Fold change vs veh, TAMM41 / RFU, KIAA1704 /// LOC100996395 / Fold change vs veh, KIAA1704 /// LOC100996395 / RFU, ING1 / Fold change vs veh, ING1 / RFU, TRMT61B / Fold change vs veh, TRMT61B / RFU, FUBP3 / Fold change vs veh, FUBP3 / RFU, TP53 / Fold change vs veh, TP53 / RFU, TNKS2 / Fold change vs veh, TNKS2 / RFU, ZFP14 / Fold change vs veh, ZFP14 / RFU, ACTR2 / Fold change vs veh, ACTR2 / RFU, PPP3R1 / Fold change vs veh, PPP3R1 / RFU, PIK3R1 / Fold change vs veh, PIK3R1 / RFU, HNRNPA1 / Fold change vs veh, HNRNPA1 / RFU, RNF170 / Fold change vs veh, RNF170 / RFU, ZNF28 / Fold change vs veh, ZNF28 / RFU, RNGTT / Fold change vs veh, RNGTT / RFU, OGT / Fold change vs veh, OGT / RFU, BRD1 / Fold change vs veh, BRD1 / RFU, MARS / Fold change vs veh, MARS / RFU, ZNF655 / Fold change vs veh, ZNF655 / RFU, FAHD1 / Fold change vs veh, FAHD1 / RFU, BDP1 / Fold change vs veh, BDP1 / RFU, LRRCC1 / Fold change vs veh, LRRCC1 / RFU, ARID1A / Fold change vs veh, ARID1A / RFU, ZNF146 / Fold change vs veh, ZNF146 / RFU, ZNF330 / Fold change vs veh, ZNF330 / RFU, GPN3 / Fold change vs veh, GPN3 / RFU, C9orf123 / Fold change vs veh, C9orf123 / RFU, N4BP2L2 / Fold change vs veh, N4BP2L2 / RFU, ARFIP1 / Fold change vs veh, ARFIP1 / RFU, FAM179B / Fold change vs veh, FAM179B / RFU, BCL10 / Fold change vs veh, BCL10 / RFU, UHRF1BP1L / Fold change vs veh, UHRF1BP1L / RFU, BET1 / Fold change vs veh, BET1 / RFU, CNOT2 / Fold change vs veh, CNOT2 / RFU, ZNF268 / Fold change vs veh, ZNF268 / Fold change vs veh, ZNF507 / RFU, DGCR2 / Fold change vs veh, DGCR2 / RFU, WDSUB1 / Fold change vs veh, WDSUB1 / Fold change vs veh, HSP90B1 /// MIR3652 / RFU, ADSS / Fold change vs veh, ADSS / RFU, GK / Fold change vs veh, GK / RFU, ZNF148 / Fold change vs veh, ZNF148 / RFU, TAF9 / Fold change vs veh, TAF9 / RFU, SLC1A5 / Fold change vs veh, SLC1A5 / RFU, SLMO2 / Fold change vs veh, SLMO2 / RFU, ABCC4 / Fold change vs veh, ABCC4 / RFU, LOC101060439 /// RAP1B / Fold change vs veh, LOC101060439 /// RAP1B / RFU, RFX7 / Fold change vs veh, RFX7 / RFU, GTPBP10 / Fold change vs veh, GTPBP10 / RFU, CNEP1R1 / Fold change vs veh, CNEP1R1 / RFU, BIVM-ERCC5 /// ERCC5 / Fold change vs veh, BIVM-ERCC5 /// ERCC5 / RFU, ILF3 / Fold change vs veh, ILF3 / RFU 11762660_at / Fold change /veh 11762660_at / RFU VCAN (11757783_s_at) / Fold change /veh VCAN (11757783_s_at) / RFU DDX43 (11728927_at) / Fold change /veh DDX43 (11728927_at) / RFU KRT8 (11758188_x_at) / Fold change /veh KRT8 (11758188_x_at) / RFU NKD1 (11759106_at) / Fold change /veh NKD1 (11759106_at) / RFU SRD5A1 (11742802_a_at) / Fold change /veh SRD5A1 (11742802_a_at) / RFU TPSAB1 /// TPSB2 (11721975_s_at) / Fold change /veh TPSAB1 /// TPSB2 (11721975_s_at) / RFU GSTM3 (11746129_a_at) / Fold change /veh GSTM3 (11746129_a_at) / RFU IL23R (11737362_x_at) / Fold change /veh IL23R (11737362_x_at) / RFU TMEM51 (11727254_a_at) / Fold change /veh TMEM51 (11727254_a_at) / RFU PIWIL2 (11732686_x_at) / Fold change /veh PIWIL2 (11732686_x_at) / RFU ORM1 (11744905_x_at) / Fold change /veh ORM1 (11744905_x_at) / RFU CCDC152 (11743942_at) / Fold change /veh CCDC152 (11743942_at) / RFU ECM1 (11717891_a_at) / Fold change /veh ECM1 (11717891_a_at) / RFU IL23R (11748794_a_at) / Fold change /veh IL23R (11748794_a_at) / RFU TNFAIP8L3 (11732012_x_at) / Fold change /veh TNFAIP8L3 (11732012_x_at) / RFU MBOAT4 (11741988_at) / Fold change /veh MBOAT4 (11741988_at) / RFU 11764193_at / Fold change /veh 11764193_at / RFU TMEM53 (11763286_at) / Fold change /veh TMEM53 (11763286_at) / RFU MAGEB2 (11727129_at) / Fold change /veh MAGEB2 (11727129_at) / RFU TMEM200A (11744735_a_at) / Fold change /veh TMEM200A (11744735_a_at) / RFU CCDC152 (11751479_a_at) / Fold change /veh CCDC152 (11751479_a_at) / RFU FAM211A (11726209_a_at) / Fold change /veh FAM211A (11726209_a_at) / RFU RGS16 (11746705_a_at) / Fold change /veh RGS16 (11746705_a_at) / RFU VCAN (11755009_s_at) / Fold change /veh VCAN (11755009_s_at) / RFU RHOB (11743442_s_at) / Fold change /veh RHOB (11743442_s_at) / RFU RGS16 (11720943_a_at) / Fold change /veh RGS16 (11720943_a_at) / RFU RGS16 (11720944_at) / Fold change /veh RGS16 (11720944_at) / RFU, VPS4B / Fold change vs veh, VPS4B / RFU, CREB1 / Fold change vs veh, CREB1 / RFU, DNAJC13 / Fold change vs veh, DNAJC13 / RFU, GNAQ / Fold change vs veh, GNAQ / RFU, CDK5R1 / Fold change vs veh, CDK5R1 / RFU, ZRANB3 / Fold change vs veh, ZRANB3 / RFU, CUL4A / Fold change vs veh, CUL4A / RFU, CCNY / Fold change vs veh, CCNY / RFU, UFL1 / Fold change vs veh, UFL1 / RFU, COG3 / Fold change vs veh, COG3 / RFU, DIAPH2 / Fold change vs veh, DIAPH2 / RFU, SKA2 / Fold change vs veh, SKA2 / RFU, AFF3 / Fold change vs veh, AFF3 / RFU, LMF1 / Fold change vs veh, LMF1 / RFU, IPO11 / Fold change vs veh, IPO11 / RFU, DFFB / Fold change vs veh, DFFB / RFU, FOXP1 / Fold change vs veh, FOXP1 / RFU, CARD8 / Fold change vs veh, CARD8 / RFU, STRN3 / Fold change vs veh, STRN3 / RFU, ADK / Fold change vs veh, ADK / RFU, RASSF2 / Fold change vs veh, RASSF2 / RFU, WIPF1 / Fold change vs veh, WIPF1 / RFU, LARP1B / Fold change vs veh, LARP1B / RFU, RASA1 / Fold change vs veh, RASA1 / RFU, RB1 / Fold change vs veh, RB1 / RFU, PPFIA1 / Fold change vs veh, PPFIA1 / RFU, MAT2A / Fold change vs veh, MAT2A / RFU, CCT5 / Fold change vs veh, CCT5 / RFU, WDR92 / Fold change vs veh, WDR92 / RFU, CUX1 / Fold change vs veh, CUX1 / RFU, TTC7A / Fold change vs veh, TTC7A / RFU, TMEM135 / Fold change vs veh, TMEM135 / RFU, DEPTOR / Fold change vs veh, DEPTOR / RFU, CPM / Fold change vs veh, CPM / RFU, DNAJB6 / Fold change vs veh, DNAJB6 / RFU, CACNA2D3 / Fold change vs veh, CACNA2D3 / RFU, DTX4 / Fold change vs veh, DTX4 / RFU, TFCP2 / Fold change vs veh, TFCP2 / RFU, GMCL1 /// GMCL1P1 / Fold change vs veh, GMCL1 /// GMCL1P1 / RFU, AEBP2 / Fold change vs veh, AEBP2 / RFU, SNHG1 /// SNORD22 /// SNORD25 /// SNORD26 /// SNORD27 /// SNORD28 /// SNORD29 /// SNORD31 / Fold change vs veh, SNHG1 /// SNORD22 /// SNORD25 /// SNORD26 /// SNORD27 /// SNORD28 /// SNORD29 /// SNORD31 / Fold change (Aza/veh), C12orf56 (ProbeSet 11735607_a_at) / Fold change (ACY-1035/veh), C12orf56 (ProbeSet 11735607_a_at) / Fold change (Aza/veh), FGFR1OP (ProbeSet 11751329_s_at) / Fold change (ACY-1035/veh), FGFR1OP (ProbeSet 11751329_s_at) / Fold change (Aza/veh), VPS36 (ProbeSet 11739960_a_at) / Fold change (ACY-1035/veh), VPS36 (ProbeSet 11739960_a_at) / RFU SYPL1 (11715823_x_at) / Fold change /veh SYPL1 (11715823_x_at) / RFU IGFBP7 (11715501_s_at) / Fold change /veh IGFBP7 (11715501_s_at) / RFU REEP3 (11722064_at) / Fold change /veh REEP3 (11722064_at) / RFU IGLL1 (11728026_x_at) / Fold change /veh IGLL1 (11728026_x_at): dose or concentration left out as unconfirmed
Settings: MV-4-11 cells, 48 hours

Nc1ccc(-c2cccs2)cc1NC(=O)c1ccc2c(c1)cc(C1CC1)n2CCN1CCOCC1 [ACY-1035]
Fold change /veh EBF3 (11725865_a_at): 1.09
